# Experimental data reported in publication PMC13192270, “RhlR quorum-sensing receptor ligand sensitivity regulates the differential expression of phenazine genes in Pseudomonas aeruginosa” (Journal of Bacteriology, 2026).
# Test system: ΔrhlI strain expressing RhlR T58L
# Assay: RNA-seq gene expression
# Assay type: cell-based, Pseudomonas aeruginosa
# Parameters: opmD Expression value / mexI Expression value / mexH Expression value / mexG Expression value / lasB Expression value / rhlA Expression value / rhlB Expression value / rhlR Expression value / lecB Expression value / fhp Expression value / chiC Expression value / hcnA Expression value / mvfR Expression value / katB Expression value / norC Expression value / norB Expression value / katA Expression value: unit not given here
# Settings: 2 µM C4HSL
# Experimental: To determine the effects of hypo- and hypersensitivity to C4HSL on RhlR-dependent transcription activation in P. aeruginosa, we performed RNA-seq on ΔrhlI strains expressing WT RhlR, RhlR T58L, and RhlR A44M in the presence of 2 µM C4HSL. We chose this approach to better control the levels of C4HSL across samples. All gene expression analyses were done relative to a ΔrhlI strain without exogenous supplementation of AHL. Thus, we examined the total increase in C4HSL-dependent gene regulation. We observed increased rhlA RNA levels in strains expressing WT RhlR and the RhlR T58L variant compared to ΔrhlI without C4HSL or a strain expressing the RhlR A44M variant (Table 2; Table S1). […] To corroborate our RNA-seq data, we built an rhlA promoter fusion to mScarlet and assayed reporter levels in the same genetic backgrounds as our transcriptomic experiment (Fig. S7D). Strains expressing hypersensitive RhlR variants produced similar levels of fluorescent signal relative to the WT strain, while a strain expressing a hyposensitive RhlR variant had diminished levels of fluorescent reporter (Fig. S7D).
# A total of […] of overnight cultures was back diluted 1:100 in 20 mL of fresh LB media and incubated for 5 h at 37°C with shaking. Cells were harvested by centrifugation, and pellets were frozen until RNA extraction. RNA was extracted using the Invitrogen PureLink RNA Mini Kit. Pellets were resuspended in 100 µL lysozyme solution containing 10 mM Tris-HCl pH 8.0, 0.1 mM EDTA, and 1 mg/mL lysozyme. Five microliters of 1% SDS was added, and the solution was mixed with a vortex and incubated at room temperature for 5 min. A total of 350 µL lysis buffer (Invitrogen) was added with 10 µL 2-mercaptoethanol for each 1 mL of lysis buffer and vortexed. Cells were lysed by bead beating (BioSpec 0.1 MM Zirconia/Silica Beads) for two rounds of 50 s. Lysed cells were transferred to fresh microcentrifuge tubes with 250 µL of 100% ethanol and mixed with a vortex. Samples were spun in spin cartridges (Invitrogen) at 12,000 × g for 15 s at room temperature, and the flow-through was discarded. A total of 700 µL Wash Buffer I (Invitrogen) was added and spun at 12,000 × g for 15 s at room temperature, and the flow-through was discarded. A total of 500 µL Wash Buffer II (Invitrogen) with ethanol was added and centrifuged for 12,000 × g for 15 s at room temperature; the flow-through was discarded, and RNA samples were washed again. Cells were spun at 12,000 × g for 1 min at room temperature to dry the membrane with the bound RNA. A total of 50 µL RNAse-free water was added to the center of the spin cartridge, incubated at room temperature for 1 min, and centrifuged for 2 min at ≥12,000 × g at room temperature. Extracted RNA was then frozen at −80°C until further use.
# Bulk RNA was sent to SeqCenter (Pittsburgh, PA) where it was processed for paired-end Illumina sequencing via rRNA depletion using Ribo-Zero Plus (Illumina). Fastq files generated by SeqCenter were processed using Rockhopper with default settings ([61][–][63]). Briefly, fastq files were aligned to the genome of Pseudomonas aeruginosa UCBPP-PA14. The reads were subsequently normalized using upper-quartile normalization, and transcript abundance was determined by reads per kilobase per million mapped reads. Differential gene expression analysis was conducted using a negative binomial distribution model, outputting a P-value for each transcript. The P-values were then corrected for false discovery using the Benjamini-Hochberg procedure, resulting in the q-values reported here (Table S2). SignalMap v2.0 (NimbleGen Systems) was used to visualize read counts for phzABCDEFG1/2, phzH, phzM, and phzS (Fig. 5). Aligned sequences generated in Rockhopper were converted to GFF files, and genes of interest were isolated into unique GFF files ([37]).
smiles,measurement,setting,value
"CCCC(=O)N[C@H]1CCOC1=O [C4HSL, N-butyryl-L-homoserine lactone]",chiC Expression value,,"3,615,357"
same,fhp Expression value,,"396,561.5"
same,hcnA Expression value,,"9,523"
same,katA Expression value,,"12,151,161"
same,katB Expression value,,"2,895,168"
same,lasB Expression value,,"19,328,123.5"
same,lecB Expression value,,"250,651"
same,mexG Expression value,,"332,571.5"
same,mexH Expression value,,"723,774.5"
same,mexI Expression value,,"830,527.5"
same,mvfR Expression value,,"267,969"
same,norB Expression value,,"7,897,306"
same,norC Expression value,,"3,026,578.5"
same,opmD Expression value,,"525,347"
same,phnA Expression value,,"1,406,882.5"
same,phnB Expression value,,"434,424"
same,phzA1 Expression value,,"6,068"
same,phzA2 Expression value,,"61,057.5"
same,phzB1 Expression value,,"73,793"
same,phzB2 Expression value,,"1,991,168"
same,phzC1 Expression value,,"272,395.5"
same,phzC2 Expression value,,"1,969,682.5"
same,phzD1 Expression value,,"1,058,250"
same,phzD2 Expression value,,"977,075.5"
same,phzE1 Expression value,,"2,058,712.5"
same,phzE2 Expression value,,"1,532,300.5"
same,phzF1 Expression value,,"1,047,752.5"
same,phzF2 Expression value,,"1,048,278.5"
same,phzG1 Expression value,,"312,421.5"
same,phzG2 Expression value,,"1,165,545"
same,phzM Expression value,,"79,302.5"
same,phzS Expression value,,"377,065.5"
same,pqsA Expression value,,"870,485.5"
same,pqsB Expression value,,"2,171,803.5"
same,pqsC Expression value,,"2,097,049"
same,pqsD Expression value,,"2,742,260"
same,pqsE Expression value,,"1,483,216.5"
same,rhlA Expression value,,"879,447.5"
same,rhlB Expression value,,"741,717"
same,rhlR Expression value,,"906,213"
same,chiC Log2fold change,vs ΔrhlI without AHL,4.706
same,fhp Log2fold change,vs ΔrhlI without AHL,5.681
same,hcnA Log2fold change,vs ΔrhlI without AHL,−1.753
same,katA Log2fold change,vs ΔrhlI without AHL,1.97
same,katB Log2fold change,vs ΔrhlI without AHL,7.877
same,lasB Log2fold change,vs ΔrhlI without AHL,2.595
same,lecB Log2fold change,vs ΔrhlI without AHL,−0.51
same,mexG Log2fold change,vs ΔrhlI without AHL,6.357
same,mexH Log2fold change,vs ΔrhlI without AHL,6.234
same,mexI Log2fold change,vs ΔrhlI without AHL,5.568
same,mvfR Log2fold change,vs ΔrhlI without AHL,0.187
same,norB Log2fold change,vs ΔrhlI without AHL,7.599
same,norC Log2fold change,vs ΔrhlI without AHL,7.238
same,opmD Log2fold change,vs ΔrhlI without AHL,6.207
same,phnA Log2fold change,vs ΔrhlI without AHL,−0.7187
same,phnB Log2fold change,vs ΔrhlI without AHL,−0.4007
same,phzA1 Log2fold change,vs ΔrhlI without AHL,−2.305
same,phzA2 Log2fold change,vs ΔrhlI without AHL,2.537
same,phzB1 Log2fold change,vs ΔrhlI without AHL,−2.194
same,phzB2 Log2fold change,vs ΔrhlI without AHL,3.237
same,phzC1 Log2fold change,vs ΔrhlI without AHL,0.3098
same,phzC2 Log2fold change,vs ΔrhlI without AHL,3.428
same,phzD1 Log2fold change,vs ΔrhlI without AHL,2.278
same,phzD2 Log2fold change,vs ΔrhlI without AHL,2.374
same,phzE1 Log2fold change,vs ΔrhlI without AHL,2.344
same,phzE2 Log2fold change,vs ΔrhlI without AHL,2.345
same,phzF1 Log2fold change,vs ΔrhlI without AHL,2.194
same,phzF2 Log2fold change,vs ΔrhlI without AHL,2.188
same,phzG1 Log2fold change,vs ΔrhlI without AHL,0.6164
same,phzG2 Log2fold change,vs ΔrhlI without AHL,3.389
same,phzM Log2fold change,vs ΔrhlI without AHL,−2.128
same,phzS Log2fold change,vs ΔrhlI without AHL,−0.989
same,pqsA Log2fold change,vs ΔrhlI without AHL,−1.603
same,pqsB Log2fold change,vs ΔrhlI without AHL,−0.7949
same,pqsC Log2fold change,vs ΔrhlI without AHL,−0.8699
same,pqsD Log2fold change,vs ΔrhlI without AHL,−0.6876
same,pqsE Log2fold change,vs ΔrhlI without AHL,−0.7631
same,rhlA Log2fold change,vs ΔrhlI without AHL,1.8
same,rhlB Log2fold change,vs ΔrhlI without AHL,2.488
same,rhlR Log2fold change,vs ΔrhlI without AHL,0.5062
